Earlier results on one substance are cited in patent publication US20090023742A1, “THIAZOLONES FOR USE AS PI3 KINASE INHIBITORS” (priority 2006, published 2009).

The subject of this series is Class I PI3-kinases. The following applies: each of the four Class I PI3-kinases; read-out: IC50 values against each of the various Class I PI3-kinases.

Regarding wortmannin, the IC50 was 1 to 10 nM.

By IC50 is commonly meant the midpoint of a concentration-inhibition curve.
